{
  "source": "patent US12479847B2",
  "about": "(DANA-FARBER CANCER INSTITUTE, INC., priority 2019, dated 2025)",
  "test_in_all_cases": "KINOMEscan (ScanMAX) kinase profiling",
  "type_in_all_cases": "binding",
  "key": {"panel of 468 kinases [1]": {"target": "T1, panel of 468 kinases (Homo sapiens, UniProt Q9H0K1)", "T1 construct": "purchased KINOMEscan (ScanMAX) service", "details": "SIK2; 1 μM; read-out: % control"}, "panel of 468 kinases [2]": {"target": "T2, panel of 468 kinases (Homo sapiens, UniProt P36888, D835V)", "T2 construct": "purchased KINOMEscan (ScanMAX) service", "T2 sequence (P36888 27-993 D835V)": "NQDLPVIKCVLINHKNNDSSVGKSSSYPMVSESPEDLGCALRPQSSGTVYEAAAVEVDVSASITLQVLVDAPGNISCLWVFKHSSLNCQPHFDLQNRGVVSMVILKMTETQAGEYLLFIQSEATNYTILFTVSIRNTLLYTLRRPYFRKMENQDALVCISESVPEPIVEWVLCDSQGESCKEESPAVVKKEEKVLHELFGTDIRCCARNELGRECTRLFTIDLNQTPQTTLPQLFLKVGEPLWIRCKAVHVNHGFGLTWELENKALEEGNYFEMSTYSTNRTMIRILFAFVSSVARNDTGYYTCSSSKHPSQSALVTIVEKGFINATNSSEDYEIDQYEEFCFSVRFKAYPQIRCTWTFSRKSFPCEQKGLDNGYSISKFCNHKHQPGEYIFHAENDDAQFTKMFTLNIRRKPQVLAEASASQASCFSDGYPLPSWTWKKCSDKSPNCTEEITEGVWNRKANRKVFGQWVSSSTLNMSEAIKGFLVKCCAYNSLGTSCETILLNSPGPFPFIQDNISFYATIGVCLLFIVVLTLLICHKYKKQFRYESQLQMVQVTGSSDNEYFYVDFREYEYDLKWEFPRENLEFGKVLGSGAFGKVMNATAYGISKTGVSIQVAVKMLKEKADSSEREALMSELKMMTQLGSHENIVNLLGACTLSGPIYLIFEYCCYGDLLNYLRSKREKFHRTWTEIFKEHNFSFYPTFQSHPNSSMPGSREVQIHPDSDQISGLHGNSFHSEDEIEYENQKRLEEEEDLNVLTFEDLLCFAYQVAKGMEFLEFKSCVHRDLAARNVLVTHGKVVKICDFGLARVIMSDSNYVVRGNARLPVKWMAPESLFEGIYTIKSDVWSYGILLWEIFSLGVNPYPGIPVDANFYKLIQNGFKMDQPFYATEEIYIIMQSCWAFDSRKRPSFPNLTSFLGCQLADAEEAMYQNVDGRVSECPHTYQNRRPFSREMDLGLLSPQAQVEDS", "details": "FLT3(D835V); 1 μM; read-out: % control"}, "panel of 468 kinases [3]": {"target": "T3, panel of 468 kinases (Homo sapiens, UniProt O15197)", "T3 construct": "purchased KINOMEscan (ScanMAX) service", "T3 sequence (O15197 32-1021)": "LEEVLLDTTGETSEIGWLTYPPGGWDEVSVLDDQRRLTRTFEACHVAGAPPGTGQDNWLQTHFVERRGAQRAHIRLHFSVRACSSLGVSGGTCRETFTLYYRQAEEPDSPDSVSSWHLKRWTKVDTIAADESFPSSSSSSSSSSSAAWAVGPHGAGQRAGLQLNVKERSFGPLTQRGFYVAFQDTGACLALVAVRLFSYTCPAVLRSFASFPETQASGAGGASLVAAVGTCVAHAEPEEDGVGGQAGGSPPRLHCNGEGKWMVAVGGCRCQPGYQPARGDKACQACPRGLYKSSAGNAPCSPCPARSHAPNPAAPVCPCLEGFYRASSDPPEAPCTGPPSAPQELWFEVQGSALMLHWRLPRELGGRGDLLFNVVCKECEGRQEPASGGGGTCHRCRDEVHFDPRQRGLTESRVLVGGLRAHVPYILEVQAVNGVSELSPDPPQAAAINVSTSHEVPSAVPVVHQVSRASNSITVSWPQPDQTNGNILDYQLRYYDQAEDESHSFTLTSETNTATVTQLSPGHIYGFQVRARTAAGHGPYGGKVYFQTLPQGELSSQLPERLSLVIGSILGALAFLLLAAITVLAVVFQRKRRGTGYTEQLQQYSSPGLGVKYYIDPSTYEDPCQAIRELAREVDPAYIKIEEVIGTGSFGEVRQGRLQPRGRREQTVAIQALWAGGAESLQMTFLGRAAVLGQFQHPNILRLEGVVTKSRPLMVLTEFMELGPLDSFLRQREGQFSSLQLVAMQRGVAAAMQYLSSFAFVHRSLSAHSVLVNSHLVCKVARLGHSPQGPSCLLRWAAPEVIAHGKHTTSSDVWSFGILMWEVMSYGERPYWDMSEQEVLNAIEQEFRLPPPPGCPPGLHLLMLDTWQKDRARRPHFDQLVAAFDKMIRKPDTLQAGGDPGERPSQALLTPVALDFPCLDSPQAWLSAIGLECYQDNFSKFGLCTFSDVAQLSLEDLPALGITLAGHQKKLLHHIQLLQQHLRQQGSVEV", "details": "EPHB6; 1 μM; read-out: % control"}, "panel of 468 kinases [4]": {"target": "T4, panel of 468 kinases (Homo sapiens, UniProt P42679)", "T4 construct": "purchased KINOMEscan (ScanMAX) service", "T4 sequence (P42679 1-507)": "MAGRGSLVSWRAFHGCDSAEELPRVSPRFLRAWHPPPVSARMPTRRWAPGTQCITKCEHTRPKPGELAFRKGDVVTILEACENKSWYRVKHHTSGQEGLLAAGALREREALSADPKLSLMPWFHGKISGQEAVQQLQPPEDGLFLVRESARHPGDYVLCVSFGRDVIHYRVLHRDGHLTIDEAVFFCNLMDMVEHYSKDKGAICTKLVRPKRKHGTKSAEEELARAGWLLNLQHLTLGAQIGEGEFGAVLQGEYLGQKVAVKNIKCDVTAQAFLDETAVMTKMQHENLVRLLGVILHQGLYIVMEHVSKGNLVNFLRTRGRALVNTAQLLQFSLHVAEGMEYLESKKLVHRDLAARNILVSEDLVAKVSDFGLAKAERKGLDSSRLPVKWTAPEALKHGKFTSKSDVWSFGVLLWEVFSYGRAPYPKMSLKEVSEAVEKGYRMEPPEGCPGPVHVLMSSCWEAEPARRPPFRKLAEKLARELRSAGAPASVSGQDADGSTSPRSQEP", "details": "CTK; 1 μM; read-out: % control"}, "panel of 468 kinases [5]": {"target": "T5, panel of 468 kinases (Homo sapiens, UniProt Q52WX2)", "T5 construct": "purchased KINOMEscan (ScanMAX) service", "T5 sequence (Q52WX2 whole entry)": "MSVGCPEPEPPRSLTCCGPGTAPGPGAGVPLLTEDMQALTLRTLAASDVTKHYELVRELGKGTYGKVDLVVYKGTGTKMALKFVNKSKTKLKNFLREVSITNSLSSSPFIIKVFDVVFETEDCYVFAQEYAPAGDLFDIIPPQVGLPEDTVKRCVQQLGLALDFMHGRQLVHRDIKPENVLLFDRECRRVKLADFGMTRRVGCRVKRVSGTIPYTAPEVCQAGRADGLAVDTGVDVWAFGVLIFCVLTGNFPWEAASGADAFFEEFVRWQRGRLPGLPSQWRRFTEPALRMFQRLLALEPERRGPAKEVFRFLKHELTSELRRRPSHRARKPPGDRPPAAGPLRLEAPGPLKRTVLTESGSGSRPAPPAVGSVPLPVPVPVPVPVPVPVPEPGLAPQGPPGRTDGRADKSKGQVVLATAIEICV", "details": "SBK1; 1 μM; read-out: % control"}},
  "data": [
    {"compound": "CNc1nc(Nc2ccc(S(=O)(=O)N3CCC(N4CCOCC4)CC3)cc2OC)nc2[nH]cc(Cl)c12", "note": "[Compound 12, 5-chloro-N2-(2-methoxy-4-((4-morpholinopiperidin-1-yl)sulfonyl)phenyl)-N4-methyl-7H-pyrrolo[2,3-d]pyrimidine-2,4-diamine]", "values": [
      {"measurement": "remaining binding at 1 µM", "setting": "panel of 468 kinases [1]", "result": 100, "unit": "%"},
      {"measurement": "remaining binding at 1 µM", "setting": "panel of 468 kinases [2]", "result": 72, "unit": "%"},
      {"measurement": "remaining binding at 1 µM", "setting": "panel of 468 kinases [3]", "result": 51, "unit": "%"},
      {"measurement": "remaining binding at 1 µM", "setting": "panel of 468 kinases [4]", "result": 100, "unit": "%"},
      {"measurement": "remaining binding at 1 µM", "setting": "panel of 468 kinases [5]", "result": 77, "unit": "%"}
    ]},
    {"compound": "CNc1nc(Nc2ccc(C(=O)N3CCC(N4CCOCC4)CC3)c3c2OCO3)nc2[nH]cc(Cl)c12", "note": "[Compound 75, (7-((5-chloro-4-(methylamino)-7H-pyrrolo[2,3-d]pyrimidin-2-yl)amino)benzo[d][1,3]dioxol-4-yl)(4-morpholinopiperidin-1-yl)methanone]", "values": [
      {"measurement": "remaining binding at 1 µM", "setting": "panel of 468 kinases [1]", "result": 100, "unit": "%"},
      {"measurement": "remaining binding at 1 µM", "setting": "panel of 468 kinases [2]", "result": 1.8, "unit": "%"},
      {"measurement": "remaining binding at 1 µM", "setting": "panel of 468 kinases [3]", "result": 51, "unit": "%"},
      {"measurement": "remaining binding at 1 µM", "setting": "panel of 468 kinases [4]", "result": 100, "unit": "%"},
      {"measurement": "remaining binding at 1 µM", "setting": "panel of 468 kinases [5]", "result": 64, "unit": "%"}
    ]},
    {"compound": "CNc1nc(Nc2ccc(P3(=O)CCN(C4CCOCC4)CC3)cc2OC)nc2[nH]cc(Cl)c12", "note": "[Compound 77, 4-(4-((5-chloro-4-(methylamino)-7H-pyrrolo[2,3-d]pyrimidin-2-yl)amino)-3-methoxyphenyl)-1-(tetrahydro-2H-pyran-4-yl)-1,4-azaphosphinane 4-oxide]", "values": [
      {"measurement": "remaining binding at 1 µM", "setting": "panel of 468 kinases [1]", "result": 100, "unit": "%"},
      {"measurement": "remaining binding at 1 µM", "setting": "panel of 468 kinases [2]", "result": 9.7, "unit": "%"},
      {"measurement": "remaining binding at 1 µM", "setting": "panel of 468 kinases [3]", "result": 49, "unit": "%"},
      {"measurement": "remaining binding at 1 µM", "setting": "panel of 468 kinases [4]", "result": 99, "unit": "%"},
      {"measurement": "remaining binding at 1 µM", "setting": "panel of 468 kinases [5]", "result": 68, "unit": "%"}
    ]}
  ]
}
